Results as given in publication PMC3038857, “Using Nuclear Receptor Activity to Stratify Hepatocarcinogens” (PLoS ONE, 2011).

How the values were obtained:
Format in all cases: cell-based
ABCB1 = test: CLZD_ABCB1: Change in expression of ABCB1 (primary human hepatocytes); details: 24 hr
Experimental: This is a collection of multiplexed gene expression assays focused on Phase I and II xenobiotic metabolizing enzymes and transporters. Human primary cell cultures were treated with chemicals at 5 concentrations (0.004-40 [drawing 42] M) for 6, 24 and 48 hr. Concentration- and time-response profiles of chemicals were measured by the expression of key nuclear receptor target genes, activities of CYP1A enzymes (EROD), and cell morphology. Fourteen gene targets were monitored by quantitative nuclease protection assay including: six representative cytochrome P-450 genes, four hepatic transporters, three Phase II conjugating enzymes, and one endogenous metabolism gene involved in cholesterol synthesis. The target genes associated with nuclear receptor pathways are as follows: [drawing 43] and [drawing 44] with [drawing 45]; [drawing 46] , [drawing 47] , [drawing 48] , [drawing 49] , [drawing 50] and [drawing 51] with [drawing 52]; [drawing 53] , [drawing 54] , [drawing 55] and [drawing 56] with [drawing 57]; [drawing 58] with [drawing 59]; and [drawing 60] with [drawing 61] . Assays were run in primary human hepatocyte cultures by CellzDirect Invitrogen Inc. (Durham, NC), in collaboration with EPA.
Multiplexed Gene Expression in Human Primary Hepatocytes: This is a collection of multiplexed gene expression assays focused on Phase I and II metabolic enzymes and transporters. […] Fourteen gene targets were monitored by quantitative nuclease protection assay: six representative cytochrome P450 genes, four hepatic transporters, three Phase II conjugating enzymes, and one endogenous metabolism gene involved in cholesterol synthesis. Cells were exposed at 5 concentrations (0.004-40 µM) for 6, 24 or 48 hr. Gene targets are sentinels for five nuclear receptor signaling pathways: AhR, CAR, PXR, FXR, and PPARα. All gene are associated with nuclear receptor pathways: CYP1A1 and CYP1A2 with AHR; ABCB1, ABCG2, CYP2B6, CYP2C9, CYP2C19 and UGT1A1 with CAR; CYP3A4, GSTA2, SLCO1B1 and SULT2A1 with PXR; HMGCS2 with PPARA; and ABCB11 with FXR. […] Detailed description of the methods, data and analysis methods for this dataset will be presented in a separate publication.

ERa (ESR1) [1] = target: T1, ERa (ESR1) (Homo sapiens, UniProt P03372); test: NCGC_ERalpha_Antagonist: GAL4 BLAM Reporter gene assay: ERa; details: antagonist mode; scale not given, looks like -log10 of molar active concentration; 0 = no activity
T1 construct: expressed in transfected cells; host or cells: HEK293

ERa (ESR1) [2] = target: T1, ERa (ESR1); test: NCGC_ERalpha_Agonist: GAL4 BLAM Reporter gene assay: ERa; details: agonist mode; scale not given, looks like -log10 of molar active concentration; 0 = no activity
Experimental: These assays measure binding constants and enzyme inhibition values for nuclear receptors. The targets include [drawing 67] , [drawing 68] , [drawing 69] , [drawing 70] , [drawing 71] , [drawing 72] , [drawing 73] , [drawing 74] , [drawing 75] and [drawing 76] . Each of the nuclear receptor targets was measured in agonist mode. Assays were run at the NIH Chemical Genomics Center (Rockville, MD).
Cell-based HTS Assays: These assays measuring binding constants and enzyme inhibition values for nuclear receptors. The targets include AR, ER, FXR, LXR, PPARα, PPARδ, PPARγ, RXRα, RXRβ and PXR. Each of the nuclear receptor targets was measured in both agonist and antagonist mode, but the antagonist data is still undergoing analysis due to possible interference between cytotoxicity and assay activity, so antagonist mode data were not used in the present analysis. Assays were run at the NIH Chemical Genomics Center (Rockville, MD) as part of the Tox21 collaboration. […] The R^2 was required to be ≥0.5. Values where only the highest concentration exceeded 50% activity were excluded to eliminate weak or false positives. Detailed description of the methods, data and analysis methods for this dataset will be presented in a separate publication.

[3] = target: T2, RXRB (retinoid X receptor, beta) (Homo sapiens, UniProt P28702); test: ATG_RXRb_TRANS: Factorial reporter gene assay (HepG2); details: HepG2; scale not given, looks like -log10 of molar active concentration; 0 = no activity
T2 construct: expressed in transfected cells; host or cells: HepG2
T2 sequence (P28702 1-533): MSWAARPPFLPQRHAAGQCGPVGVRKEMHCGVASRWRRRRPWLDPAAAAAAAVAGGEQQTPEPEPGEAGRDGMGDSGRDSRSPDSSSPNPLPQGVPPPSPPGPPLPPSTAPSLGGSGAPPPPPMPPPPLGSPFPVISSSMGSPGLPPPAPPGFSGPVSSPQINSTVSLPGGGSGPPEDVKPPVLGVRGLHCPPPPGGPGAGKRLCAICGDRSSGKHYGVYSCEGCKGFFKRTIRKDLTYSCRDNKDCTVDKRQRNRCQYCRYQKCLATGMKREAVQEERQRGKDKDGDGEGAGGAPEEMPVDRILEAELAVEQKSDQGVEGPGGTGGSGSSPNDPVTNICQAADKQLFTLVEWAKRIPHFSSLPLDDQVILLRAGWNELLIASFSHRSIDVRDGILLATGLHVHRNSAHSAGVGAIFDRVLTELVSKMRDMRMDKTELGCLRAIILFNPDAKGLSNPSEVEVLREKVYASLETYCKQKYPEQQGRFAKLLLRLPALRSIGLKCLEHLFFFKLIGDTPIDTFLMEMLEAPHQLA
Experimental: A multiple reporter transcription unit (MRTU) library consisting of 48 transcription factor binding sites was transfected into the HepG2 human liver hepatoma cell line. In addition to the cis-acting reporter genes (CIS), a modification of the approach was used to generate a trans-system (TRANS) with a mammalian one-hybrid assay consisting of an additional 25 MRTU library reporting the activity of nuclear receptor super-family members. […] These assays were performed by Attagene Inc. (Morrisville NC) under contract to EPA.
In addition to the cis-acting reporter genes (CIS), a modification of the approach was used to generate a trans-system (TRANS) with a mammalian one-hybrid assay consisting of an additional 25 MRTU library reporting the activity of nuclear receptor super-family members. […] Chemicals were then tested in the CIS and TRANS assays at seven concentrations starting at the MTC and followed by three-fold serial dilutions. These assays were performed by Attagene Inc. (Morrisville NC) under contract to EPA. Detailed description of the methods, data and analysis methods for this dataset will be presented in a separate publication.

[4] = scale not given, looks like -log10 of molar active concentration, 0 = no activity

T1 sequence (P03372 whole entry, the tested form may be a part): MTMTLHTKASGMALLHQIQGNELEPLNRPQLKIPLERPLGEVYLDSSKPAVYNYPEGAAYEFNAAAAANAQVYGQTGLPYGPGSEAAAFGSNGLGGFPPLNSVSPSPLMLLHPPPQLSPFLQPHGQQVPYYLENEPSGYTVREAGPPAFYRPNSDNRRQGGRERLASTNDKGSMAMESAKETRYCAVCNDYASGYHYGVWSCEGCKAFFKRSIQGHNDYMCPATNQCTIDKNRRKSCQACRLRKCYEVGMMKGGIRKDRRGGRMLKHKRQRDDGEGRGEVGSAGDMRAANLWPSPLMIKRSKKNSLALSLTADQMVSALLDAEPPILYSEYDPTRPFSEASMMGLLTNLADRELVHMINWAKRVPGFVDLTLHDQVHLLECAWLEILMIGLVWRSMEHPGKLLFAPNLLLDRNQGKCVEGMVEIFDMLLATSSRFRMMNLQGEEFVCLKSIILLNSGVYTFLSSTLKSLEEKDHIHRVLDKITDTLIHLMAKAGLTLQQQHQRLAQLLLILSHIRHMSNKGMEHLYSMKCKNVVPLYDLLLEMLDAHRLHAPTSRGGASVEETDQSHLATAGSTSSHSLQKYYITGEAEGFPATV

| SMILES | CLZD_ABCB1_24 (ABCB1; [4]) | NCGC_ERalpha_Antagonist (ERa (ESR1) [1]) | NCGC_ERalpha_Agonist (ERa (ESR1) [2]) | ATG_RXRb_TRANS [3] | CLZD_ABCB1_24 (ABCB1) |
| --- | --- | --- | --- | --- | --- |
| COC(=O)c1ccccc1CS(=O)(=O)NC(=O)Nc1nc(OC)cc(OC)n1 [r33] | 0 | 0 | 0 | 0 |  |
| CC(C)N1C(=O)c2ccccc2NS1(=O)=O [r37] | 0 | 0 | 0 | 0 |  |
| COc1ccc(-c2ccccc2)cc1NNC(=O)OC(C)C [r38] | 0 | 4.31 | 0 | 0 |  |
| Cc1c(COC(=O)C2C(/C=C(\Cl)C(F)(F)F)C2(C)C)cccc1-c1ccccc1 (stereo not drawn) [r39] | 4.829 | 0 | 0 | 0 |  |
| CC(C)(c1ccc(O)cc1)c1ccc(O)cc1 [r40] | 0 | 4.77 | 5.764 | 0 |  |
| OB(O)O [r41] | 0 | 0 | 0 | 0 |  |
| O=C(Nc1ccccc1-c1ccc(Cl)cc1)c1cccnc1Cl [r42] | 0 | 0 | 0 | 0 |  |
| CCC(C)n1c(=O)[nH]c(C)c(Br)c1=O (stereo not drawn) [r43] | 0 | 0 | 0 | 0 |  |
| N#Cc1cc(Br)c(O)c(Br)c1 [r44] | 0 | 0 | 0 | 0 |  |
| CC(C)N1C(=O)N(c2ccccc2)CS/C1=N\C(C)(C)C [r45] | 4.531 | 0 | 0 | 0 |  |
| CCCCOCN(C(=O)CCl)c1c(CC)cccc1CC [r46] | 0 | 0 | 0 | 0 |  |
| C=CCOC(=O)C(C)(C)OC(=O)c1cc(-n2c(=O)cc(C(F)(F)F)n(C)c2=O)ccc1Cl [r47] | 0 | 0 | 0 | 0 |  |
| CCC(C)Nc1c([N+](=O)[O-])cc(C(C)(C)C)cc1[N+](=O)[O-] (stereo not drawn) [r48] | 0 | 0 | 0 | 0 |  |
| CCSC(=O)N(CC(C)C)CC(C)C [r49] | 0 | 0 | 0 | 0 |  |
| O=C1C2CC=CCC2C(=O)N1SC(Cl)(Cl)Cl (stereo not drawn) [r51] | 0 | 0 | 0 | 0 |  |
| CNC(=O)Oc1cccc2ccccc12 [r52] | 0 | 0 | 4.543 | 0 |  |
| CC1=C(C(=O)Nc2ccccc2)SCCO1 [r53] | 0 | 0 | 0 | 0 |  |
| CCOC(=O)C(Cl)Cc1cc(-n2nc(C)n(C(F)F)c2=O)c(F)cc1Cl (stereo not drawn) [r54] | 0 | 0 | 0 | 0 |  |
| Nc1cnn(-c2ccccc2)c(=O)c1Cl [r56] | 0 | 0 | 0 | 0 |  |
| COc1cc(Cl)c(OC)cc1Cl [r57] | 0 | 0 | 0 | 0 |  |
| N#Cc1c(Cl)c(Cl)c(Cl)c(C#N)c1Cl [r58] | 0 | 0 | 0 | 0 |  |
| CC(C)OC(=O)Nc1cccc(Cl)c1 [r59] | 0 | 0 | 0 | 0 |  |
| COc1nc(C)nc(NC(=O)NS(=O)(=O)c2ccccc2Cl)n1 [r62] | 0 | 0 | 0 | 0 |  |
| COc1nc(C)nc(NC(=O)NS(=O)(=O)c2ccccc2Cl)n1 [r63] | 0 | 0 | 0 | 0 |  |
| Cc1ccccc1CO[C@@H]1C[C@@]2(C(C)C)CC[C@]1(C)O2 [r64] | 0 |  |  | 0 |  |
| CCCC1COC(Cn2cncn2)(c2ccc(Cl)cc2Cl)O1 (stereo not drawn) [r262] |  |  |  |  | 5.099 |
